Experimental data reported in patent US9611254B2, “Triazole compounds and their use as gamma secretase modulators” (Acturum Life Science AB, priority 2013, dated 2017).

Columns and labels:
Aβ42 [1] = experiment: HEK assay: Aβ42 secreted by HEK cells stably expressing APPswe (Meso Scale electrochemiluminescence); format: cell-based, Human; conditions: 4-6 hours incubation with compound, Aβ42 in cell medium; for IC50: Homo sapiens, HEK293, HEK cell line stably expressing APPswe, read-out: pIC50 Aβ42 HEK assay (converted)
Procedure: Compounds were diluted in 100% DMSO and stored at […] prior to use. Human Embryonic Kidney (HEK) cell line stably expressing APP with the Swedish mutation (APPswe) was cultured using Dulbecco's Modified Eagles medium (DMEM) supplied with […] glucose, Na-pyruvate and GlutaMAX, 10% Foetal bovine serum, 100 U/mL penicillin-streptomycin (PEST), 1× non-essential amino acids (NEAA), […] Hepes, 100 μg/mL Zeocine. Cells at about 80% confluence were washed with PBS, detached from culture flasks using 1× Trypsin/EDTA diluted in PBS, re-suspended in cell media and plated in 384-well poly-d-lysine coated cell culture plates at about 10000-15000 cells/well, in 25 μL cell media. Optionally, cryo-preserved cells (frozen and stored at −140° C. in 90% cell media and 10% DMSO) were thawed, washed and plated as above. Next the cells were incubated for 15-24 h at 37° C. and 5% CO2, after which cell medium was changed. Fresh medium containing test compound diluted ×200 from prepared compound plate was added to the cells before further incubation for 4-6 hours at 37° C. and 5% CO2. After incubation with test compound the amount of Aβ peptides, including Aβ42, Aβ40, Aβ39, Aβ38 and Aβ37, secreted to cell medium was analyzed using the electrochemiluminescence assay technology from Meso Scale Discovery Technology, in combination with specific antibodies raised against the different Aβ peptides. Potential cytotoxic effects of the compounds were assayed by measuring the ATP content (ViaLight) from cell lysate.

Aβ42 [2] = experiment: PCN assay: Aβ42 secreted by mouse primary cortical neuronal cells (ELISA); format: cell-based; conditions: primary cortical neuronal cells from 16-day mouse embryos, 16-20 hours incubation with compound, Aβ42 in cell medium; for IC50: Mus musculus, read-out: pIC50 Aβ42 PCN assay (converted)
Procedure: Compounds were diluted in 100% DMSO and stored at […] prior to use. Primary cortical neuronal cells (PCN) were isolated from 16-day mouse embryos and cultured in Ham's F12 media containing 10% Foetal bovine serum, 10 mM Hepes, 2 mM L-glutamine and 100 U/mL Penicillin-Streptomycin. 150000-250000 cells/well, in 200 μL cell media were seeded onto 96-well poly-D-Lysine coated plates. After incubation at 37° C., 5% CO2 for five days, the media was exchanged for fresh medium containing test compound diluted ×100, before further incubation for 16-20 hours at 37° C. and 5% CO2. After incubation with test compound the amount of Aβ42 peptides secreted to cell medium was analyzed using the solid phase sandwich Enzyme-Linked-Immuno-Sorbent Assay (ELISA)-kit from Invitrogen for detection of mouse βAmyloid 1-42. Potential cytotoxic effects of the compounds were assayed by measuring the ATP content (Via Light) from cell lysate.

COc1cc(Nc2nc(N3CC(c4ccccc4)C3)n(C)n2)ccc1-n1cnc(C)c1 [Example 3, N-(3-Methoxy-4-(4-methyl-1H-imidazol-1-yl)phenyl)-1-methyl-5-(3-phenylazetidin-1-yl)-1H-1,2,4-triazol-3-amine]
IC50 (Aβ42 [1]): 39.8 nM | IC50 (Aβ42 [2]): 79.4 nM

COc1cc(Nc2nc(N3CC4(CCC4)C3)n(CC(C)(C)O)n2)ccc1-n1cnc(C)c1 [Example 8, 1-(3-(3-Methoxy-4-(4-methyl-1H-imidazol-1-yl)phenylamino)-5-(2-azaspiro[3.3]heptan-2-yl)-1H-1,2,4-triazol-1-yl)-2-methylpropan-2-ol]
IC50 (Aβ42 [1]): 50.1 nM | IC50 (Aβ42 [2]): 63.1 nM

COc1cc(Nc2nc(N3CCC3c3ccccc3)n(CC(C)(C)O)n2)ccc1-n1cnc(C)c1 (racemic) [Example 5, 1-(3-(3-Methoxy-4-(4-methyl-1H-imidazol-1-yl)phenylamino)-5-(2-phenylazetidin-1-yl)-1H-1,2,4-triazol-1-yl)-2-methylpropan-2-ol]
IC50 (Aβ42 [1]): 25.1 nM | IC50 (Aβ42 [2]): 31.6 nM

COc1cc(Nc2nc(N3CCC3c3ccccc3)n(CC(C)(C)O)n2)ccc1-n1cnc(C)c1 (single isomer, unassigned; isomer 1) [Example 6, 1-(3-(3-Methoxy-4-(4-methyl-1H-imidazol-1-yl)phenylamino)-5-(2-phenylazetidin-1-yl)-1H-1,2,4-triazol-1-yl)-2-methylpropan-2-ol, isomer 1]
IC50 (Aβ42 [1]): 25.1 nM | pIC50 Aβ42 PCN assay (Aβ42 [2]): 7.2

COc1cc(Nc2nc(N3CCC34CCCC4)n(CC(C)(C)O)n2)ccc1-n1cnc(C)c1 [Example 9, 1-(3-(3-Methoxy-4-(4-methyl-1H-imidazol-1-yl)phenylamino)-5-(1-azaspiro[3.4]octan-1-yl)-1H-1,2,4-triazol-1-yl)-2-methylpropan-2-ol]
IC50 (Aβ42 [1]): 31.6 nM | IC50 (Aβ42 [2]): 31.6 nM

COc1cc(Nc2nc(N3CC(c4ccccc4)C3)n(CC(C)(C)O)n2)ccc1-n1cnc(C)c1 [Example 1, 1-(3-(3-Methoxy-4-(4-methyl-1H-imidazol-1-yl)phenylamino)-5-(3-phenylazetidin-1-yl)-1H-1,2,4-triazol-1-yl)-2-methylpropan-2-ol]
IC50 (Aβ42 [1]): 39.8 nM | IC50 (Aβ42 [2]): 15.8 nM

COc1cc(Nc2nc(N3CCC3c3ccccc3)n(CC(C)(C)O)n2)ccc1-n1cnc(C)c1 (single isomer, unassigned; isomer 2) [Example 7, 1-(3-(3-Methoxy-4-(4-methyl-1H-imidazol-1-yl)phenylamino)-5-(2-phenylazetidin-1-yl)-1H-1,2,4-triazol-1-yl)-2-methylpropan-2-ol, isomer 2]
pIC50 Aβ42 HEK assay (Aβ42 [1]; HEK cell line stably expressing APPswe): 7.8 | pIC50 Aβ42 PCN assay (Aβ42 [2]): 7.7

COc1cc(Nc2nc(N3CCC3c3ccccc3)n(C)n2)ccc1-n1cnc(C)c1 (stereo not drawn) [Example 4, N-(3-Methoxy-4-(4-methyl-1H-imidazol-1-yl)phenyl)-1-methyl-5-(2-phenylazetidin-1-yl)-1H-1,2,4-triazol-3-amine]
IC50 (Aβ42 [1]): 25.1 nM | IC50 (Aβ42 [2]): 25.1 nM

COc1cc(Nc2nc(N3CC(F)(c4ccccc4)C3)n(CC(C)(C)O)n2)ccc1-n1cnc(C)c1 [Example 2, 1-(5-(3-Fluoro-3-phenylazetidin-1-yl)-3-(3-methoxy-4-(4-methyl-1H-imidazol-1-yl)phenylamino)-1H-1,2,4-triazol-1-yl)-2-methylpropan-2-ol]
IC50 (Aβ42 [1]): 50.1 nM | IC50 (Aβ42 [2]): 31.6 nM
